Results as given in ChEMBL document CHEMBL5512659, “Structure optimizing of flavonoids against both MRSA and VRE” (Eur J Med Chem, 2024).
Values after ≈ are worked out from the molar mass of the structure shown. Active and inactive are the calls of the source. No cut-off for these calls is given here.

How the values were obtained:
Enterococcus faecalis [1] = test: Antibiofilm activity in multidrug resistant Enterococcus faecalis ATCC 51299 assessed as biofilm clearance at 0.5 to 4 times MIC by crystal violet staining based analysis; type: functional, organism-based
Staphylococcus aureus [2] = test: Antibacterial activity against Staphylococcus aureus clinical isolate 29; type: functional
Cell membrane [3] = test: Induction of cell membrane damage in multidrug resistant Enterococcus faecalis ATCC 51299 assessed as bacterial death at 2 to 4 times MIC by confocal laser scanning microscopy; type: cell membranes
Cell membrane [4] = test: Induction of cell membrane damage in multidrug resistant Enterococcus faecalis ATCC 51299 assessed as increase in green fluorescence at 2 to 4 times MIC by SYTOX Green dye based analysis; type: cell membranes
Enterococcus faecalis [5] = test: Antibacterial activity against multidrug resistant Enterococcus faecalis ATCC 51299 in presence of 4.5 mM/L K+ (reference value: 32 ug/ml); type: functional
Cell membrane [6] = test: Induction of membrane damage in methicillin resistant Staphylococcus aureus clinical isolate 003 assessed as rupture of bacterial surface at 2 to 4 times MIC by SEM analysis; type: cell membranes
Staphylococcus aureus [7] = test: Antibacterial activity against methicillin resistant Staphylococcus aureus clinical isolate 003 in presence of phosphatidylethanolamine; type: functional, organism-based
Cell membrane [8] = test: Induction of cell membrane damage in methicillin resistant Staphylococcus aureus clinical isolate 003 assessed as bacterial death at 2 to 4 times MIC by confocal laser scanning microscopy; type: cell membranes
Cell membrane [9] = test: Induction of membrane damage in methicillin resistant Staphylococcus aureus clinical isolate 003 assessed as deformation of bacterial surface at 2 to 4 times MIC by SEM analysis; type: cell membranes
Enterococcus faecalis [10] = test: Antibiofilm activity in multidrug resistant Enterococcus faecalis ATCC 51299 assessed as destruction of biofilm integrity at 0.5 to 4 times MIC measured after 24 hrs by inverted fluorescence microscopic analysis; type: functional, organism-based
Enterococcus faecalis [11] = test: Antibacterial activity against multidrug resistant Enterococcus faecalis ATCC 51299 in presence of phosphatidylglycerol; type: functional, organism-based
Enterococcus faecalis [12] = test: Antibacterial activity against multidrug resistant Enterococcus faecalis ATCC 51299 in presence of 1 mM/L Mg2+ (reference value: 1 ug/ml); type: functional
Enterococcus faecalis [13] = test: Antibacterial activity against multidrug resistant Enterococcus faecalis ATCC 51299 in presence of 4.5 mM/L K+ (reference value: 1 ug/ml); type: functional
Staphylococcus aureus [14] = test: Antibacterial activity against methicillin resistant Staphylococcus aureus clinical isolate 003 in presence of 2.5 mM/L Ca2+ (reference value: 0.5 ug/ml); type: functional
Enterococcus faecalis [15] = test: Antibacterial activity against multidrug resistant Enterococcus faecalis ATCC 51299 in presence of 140 mM/L Na+ (reference value: 1 ug/ml); type: functional
Staphylococcus aureus [16] = test: Antibacterial activity against methicillin resistant Staphylococcus aureus clinical isolate 003 in presence of 1 mM/L Mg2+ (reference value: 0.5 ug/ml); type: functional
Staphylococcus aureus [17] = test: Antibacterial activity against methicillin resistant Staphylococcus aureus clinical isolate 003 in presence of 4.5 mM/L K+ (reference value: 0.5 ug/ml); type: functional
Enterococcus faecalis [18] = test: Antibacterial activity against multidrug resistant Enterococcus faecalis ATCC 51299 in presence of 2.5 mM/L Ca+ (reference value: 1 ug/ml); type: functional
Staphylococcus aureus [19] = test: (§1) Antibacterial activity against methicillin resistant Staphylococcus aureus clinical isolate 003 infected in cyclophosphamide immunosuppressed mouse model of skin wound infection assessed as reduction in bacterial load in wound at 1.25 mg/kg administered for 7 days and measured on day 8 (reference value: 1.6 x 10^8 CFU); type: functional; conditions: time 8 day
Staphylococcus aureus [20] = test: Synergistic antibacterial activity against methicillin resistant Staphylococcus aureus clinical isolate 003 assessed as fractional inhibitory concentration in presence of lincomycin hydrochloride; type: functional
Staphylococcus aureus [21] = test: (§2) Antibacterial activity against methicillin resistant Staphylococcus aureus clinical isolate 003 infected in cyclophosphamide immunosuppressed mouse model of skin wound infection assessed as wound healing at 1.25 to 5 mg/kg administered for 7 days and measured on day 8; type: functional, organism-based; conditions: dose 1.25-5 mg/kg, time 8.0 day
Staphylococcus aureus [22] = test: Additive antibacterial activity against methicillin resistant Staphylococcus aureus clinical isolate 003 assessed as fractional inhibitory concentration in presence of vancomycin; type: functional
Enterococcus faecalis [23] = test: Additive antibacterial activity against multidrug resistant Enterococcus faecalis ATCC 51299 assessed as fractional inhibitory concentration in presence of streptomycin; type: functional
Staphylococcus aureus [24] = test: as §1, with “5” for “1.25”; type: functional; conditions: time 8 day
Enterococcus faecalis [25] = test: Antibacterial activity against multidrug resistant Enterococcus faecalis ATCC 51299 infected in cyclophosphamide immunosuppressed mouse model of abdominal infection assessed as reduction in inflammatory infiltration at 1.25 to 5 mg/kg measured after 60 hrs by H and E staining based analysis; type: functional, organism-based; conditions: dose 1.25-5 mg/kg
Enterococcus faecalis [26] = test: Antibacterial activity against multidrug resistant Enterococcus faecalis ATCC 51299 infected in cyclophosphamide immunosuppressed mouse model of abdominal infection assessed as reduction in abscess at 1.25 to 5 mg/kg measured after 60 hrs by H and E staining based analysis; type: functional, organism-based; conditions: dose 1.25-5 mg/kg
Enterococcus faecalis [27] = test: Synergistic antibacterial activity against multidrug resistant Enterococcus faecalis ATCC 51299 assessed as fractional inhibitory concentration in presence of adriamycin hydrochloride; type: functional
Staphylococcus aureus [28] = test: Synergistic antibacterial activity against methicillin resistant Staphylococcus aureus clinical isolate 003 assessed as fractional inhibitory concentration in presence of norfloxacin; type: functional
Enterococcus faecalis [29] = test: Antibacterial activity against multidrug resistant Enterococcus faecalis ATCC 51299 infected in cyclophosphamide immunosuppressed mouse model of abdominal infection assessed as reduction in cell degeneration at 1.25 to 5 mg/kg measured after 60 hrs by H and E staining based analysis; type: functional, organism-based; conditions: dose 1.25-5 mg/kg
Staphylococcus aureus [30] = test: as §2, with “reduction in inflammatory cells in skin” for “wound healing”, “8 by H and E staining based analysis” for “8”; type: functional, organism-based; conditions: dose 1.25-5 mg/kg, time 8.0 day
[31] = Cytotoxicity against HEK293T cells assessed as cell viability at 64 ug/ml measured after 48 hrs relative to control; type: toxicity, cell-based, HEK-293T; conditions: human, at 64 µg/mL, read-out: Activity
Enterococcus faecalis [32] = test: Additive antibacterial activity against multidrug resistant Enterococcus faecalis ATCC 51299 assessed as fractional inhibitory concentration in presence of lincomycin hydrochloride; type: functional
[33] = Cytotoxicity against human L02 cells assessed as cell viability at 64 ug/ml measured after 48 hrs relative to control; type: toxicity, cell-based; conditions: at 64 µg/mL, read-out: Activity
Staphylococcus aureus [34] = test: as §1, with “2.5” for “1.25”; type: functional; conditions: time 8 day
Enterococcus faecalis [35] = test: Synergistic antibacterial activity against multidrug resistant Enterococcus faecalis ATCC 51299 assessed as fractional inhibitory concentration in presence of vancomycin; type: functional
Enterococcus faecalis [36] = test: Additive antibacterial activity against multidrug resistant Enterococcus faecalis ATCC 51299 assessed as fractional inhibitory concentration in presence of chloramphenicol; type: functional
Enterococcus faecalis [37] = test: Synergistic antibacterial activity against multidrug resistant Enterococcus faecalis ATCC 51299 assessed as fractional inhibitory concentration in presence of ampicillin; type: functional
Staphylococcus aureus [38] = test: Synergistic antibacterial activity against methicillin resistant Staphylococcus aureus clinical isolate 003 assessed as fractional inhibitory concentration in presence of tetracycline; type: functional
Enterococcus faecalis [39] = test: Synergistic antibacterial activity against multidrug resistant Enterococcus faecalis ATCC 51299 assessed as fractional inhibitory concentration in presence of tetracycline; type: functional

CCCCCCc1c(-c2ccc(OCC(=O)CN[C@H](CCCNC(=N)N)C(=O)OC)cc2OCC(=O)CN[C@H](CCCNC(=N)N)C(=O)OC)oc2cc(OC)cc(O)c2c1=O
Activity (Enterococcus faecalis [1]): Dose-Dependent Effect
MIC (Staphylococcus aureus [2]): 2 µg/mL (≈ 2.3 µM)
Activity (Cell membrane [3]): Active
Activity (Cell membrane [4]): Active
MIC (Enterococcus faecalis [5]): 32 µg/mL
Activity (Cell membrane [6]): Active
Activity (Staphylococcus aureus [7]): inactive
Activity (Cell membrane [8]): Active
Activity (Cell membrane [9]): Active
Activity (Enterococcus faecalis [10]): Dose-Dependent Effect
Activity (Enterococcus faecalis [11]): inactive

CCCCCCc1c(-c2ccc(OCCCCN(C)C)cc2OCCCCN(C)C)oc2cc(OC)cc(O)c2c1=O
MIC (Enterococcus faecalis [12]): 1 µg/mL
Activity (Enterococcus faecalis [1]): Dose-Dependent Effect
MIC (Staphylococcus aureus [2]): 0.5 µg/mL (≈ 0.858 µM)
Activity (Cell membrane [3]): Active
Activity (Cell membrane [4]): Active
MIC (Enterococcus faecalis [13]): 1 µg/mL
MIC (Staphylococcus aureus [14]): 1 µg/mL
Activity (Cell membrane [6]): Active
MIC (Enterococcus faecalis [15]): 1 µg/mL
MIC (Staphylococcus aureus [16]): 0.5 µg/mL
Activity (Staphylococcus aureus [7]): inactive
MIC (Staphylococcus aureus [17]): 0.5 µg/mL
Activity (Cell membrane [8]): Active
MIC (Enterococcus faecalis [18]): 1 µg/mL
Activity (Cell membrane [9]): Active
Activity (Enterococcus faecalis [10]): Dose-Dependent Effect
Activity (Enterococcus faecalis [11]): inactive

CCCCCCc1c(-c2ccc(OCCCCNCCCN)cc2OCCCCNCCCN)oc2cc(OC)cc(O)c2c1=O
Activity (Staphylococcus aureus [19]): 9.2 10^6CFU
MIC (Enterococcus faecalis [12]): 1 µg/mL
Activity (Enterococcus faecalis [1]): Dose-Dependent Effect
MIC (Staphylococcus aureus [2]): 0.5 µg/mL (≈ 0.78 µM)
fractional inhibitory concentration index (FICI) (Staphylococcus aureus [20]): 0.313
Activity (Staphylococcus aureus [21]): Active
fractional inhibitory concentration index (FICI) (Staphylococcus aureus [22]): 1
Activity (Cell membrane [3]): Active
fractional inhibitory concentration index (FICI) (Enterococcus faecalis [23]): 0.75
Activity (Cell membrane [4]): Active
Activity (Staphylococcus aureus [24]): 9.4 10^6CFU
Activity (Enterococcus faecalis [25]): Active
MIC (Enterococcus faecalis [13]): 1 µg/mL
Activity (Cell membrane [6]): Active
Activity (Enterococcus faecalis [26]): Active
MIC (Enterococcus faecalis [15]): 1 µg/mL
fractional inhibitory concentration index (FICI) (Enterococcus faecalis [27]): 0.5
fractional inhibitory concentration index (FICI) (Staphylococcus aureus [28]): 0.5
Activity (Enterococcus faecalis [29]): Active
Activity (Staphylococcus aureus [7]): inactive
Activity (Staphylococcus aureus [30]): Active
Activity (Cell membrane [8]): Active
viability at 48 h, 64 ug/ml [31]: > 50%
fractional inhibitory concentration index (FICI) (Enterococcus faecalis [32]): 1
viability at 48 h, 64 ug/ml [33]: > 50%
MIC (Enterococcus faecalis [18]): 1 µg/mL
Activity (Staphylococcus aureus [34]): 8 10^6CFU
fractional inhibitory concentration index (FICI) (Enterococcus faecalis [35]): 0.375
Activity (Cell membrane [9]): Active
fractional inhibitory concentration index (FICI) (Enterococcus faecalis [36]): 0.75
fractional inhibitory concentration index (FICI) (Enterococcus faecalis [37]): 0.375
fractional inhibitory concentration index (FICI) (Staphylococcus aureus [38]): 0.375
Activity (Enterococcus faecalis [10]): Dose-Dependent Effect
Activity (Enterococcus faecalis [11]): inactive
fractional inhibitory concentration index (FICI) (Enterococcus faecalis [39]): 0.25
